{
  "source": "paper PMC10829512",
  "about": "“Transport of metformin metabolites by guanidinium exporters of the small multidrug resistance family” (The Journal of General Physiology, 2024)",
  "key": {"N=C(N)N": {"system": "N=C(N)N", "assay": "purified protein, by the assay type", "conditions": "other: Gdx-pPro, pH 7.5, mean ± SEM"}, "Gdx-Clo": {"molecular_target": "T1, Gdx-Clo (Clostridiales bacterium oral taxon 876, UniProt U2EQ00)", "T1 sequence (U2EQ00 1-105)": "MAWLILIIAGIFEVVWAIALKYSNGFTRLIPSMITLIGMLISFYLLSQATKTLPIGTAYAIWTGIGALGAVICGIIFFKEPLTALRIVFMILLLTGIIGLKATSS", "assay": "SSM electrophysiology of Gdx-Clo proteoliposomes", "type": "biochemical, Clostridales oral taxon 876", "conditions": "2 mM substrate", "description": "(§1) Gdx-Clo ([Kermani et al., 2018]), Gdx-Eco ([Kermani et al., 2018]), EmrE ([Kermani et al., 2022]), and Gdx-pAmi ([Martinez-Vaz et al., 2022]) construct design and purification have been described previously. […] Proteins were overexpressed in C41(DE3). Expression was induced by the addition of 0.2 mM IPTG for 3 h. Cells were lysed and extracted with 2% n-decyl-β-D-maltoside (DM) for 2 h. After pelleting insoluble cell debris, proteins were purified using cobalt affinity resin. Wash buffer contained 25 mM Tris, pH 8.5, 150 mM NaCl, and 5 mM DM. For Gdx-pAmi, NaCl concentration was increased to 500 mM NaCl. The affinity column was washed with wash buffer, then wash buffer with 10 mM imidazole, prior to elution with wash buffer with 400 mM imidazole. For Gdx-Clo and Gdx-Eco, histidine tags were cleaved with LysC (200 ng/mg of protein; 2 h at room temperature; New England Biolabs), and for all others, histidine tags were cleaved with thrombin (1 U/mg of protein, overnight at room temperature; MilliporeSigma). Proteins were further purified using a gel filtration Superdex200 column (Cytiva) equilibrated with 100 mM NaCl, 10 mM N-2-hydroxyethylpiperazine-N′-2-ethanesulfonic acid (HEPES), pH 7.5, and 5 mM DM. Purified proteins were stored at 4°C for up to 5 days before detergent binding assays. To prepare proteoliposomes for electrophysiology assays, purified protein was mixed with E. coli polar lipid extract (10 mg/ml; Avanti Polar Lipids) solubilized with 35 mM 3-[(3-cholamidopropyl)dimethylammonio]-1-propanesulfonate (CHAPS) at a protein to lipid ratio of 40 μg SMR transporter: mg lipid (1:370 protein:lipid molar ratio) prior to detergent removal by dialysis. For preparations that included Fluc-Bpe, liposomes were reconstituted with a molar ratio of 0.3 Fluc-Bpe:1 SMRGdx: 5920 lipid (1 μg Fluc-Bpe and ∼2.5 μg SMRGdx per mg lipid). For liposome transport assays, proteoliposomes were prepared similarly, except that a 2:1 mixture of 1-palmitoyl, 2-oleoylphosphatidylethanolamine (POPE) and 1-palmitoyl, 2-oleoylphosphatidylglycerol (POPG) (10 mg/ml; Avanti Polar Lipids) was used with 0.2 μg protein/mg lipid. Proteoliposomes were stored at −80°C until use.\n(§2) SSM experiments were performed using SURFE^2R N1 instrument (Nanion Technologies). Sensors were prepared with a 1,2-diphytanoyl-sn-glycero-3-phosphocholine (DPhPC) lipid monolayer according to published protocols ([Bazzone et al., 2017]). Each sensor’s capacitance and conductance were verified before use (<80 nF capacitance, <50 nS conductance) using Nanion software protocols. Proteoliposome stock was diluted 1:25 in assay buffer (100 mM KCl, 100 mM KPO4, pH 7.5) prior to adsorption to the DPhPC monolayer. For substrate screening experiments, reference substrate samples (Gdm^+ for SMRGdx, and TPA^+ for SMRQac) were checked periodically to test for the stability of the sensor; if the current amplitude of the reference compound differed by >10% on one sensor, it indicated the desorption of liposomes, and the sensor was not used for further experiments. For every SSM electrophysiology experiment, we used the same general solution exchange protocol: after 2 s perfusion with a non-activating solution, we perfused substrate-containing buffer for 2 s and then returned to the equilibrium condition with a 4 s perfusion of non-activating buffer. For experiments with the S104C/A70C crosslinked variant, reducing conditions were established by the addition of 2.5 mM tris(2-carboxyethyl)phosphine (TCEP) to the activating and non-activating buffers.\n(§3) We screened a series of metformin metabolites for transport using SSM electrophysiology (Fig. 2, A and B)."}, "Gdx-pAmi": {"system": "Gdx-pAmi", "assay": "SSM electrophysiology of Gdx-pAmi proteoliposomes", "type": "biochemical, Aminobacter sp. MET", "conditions": "2 mM substrate", "description": "as §1, §2, §3"}, "Gdx-Eco": {"molecular_target": "Gdx-Eco (Escherichia coli, UniProt P69937)", "sequence (P69937 whole entry)": "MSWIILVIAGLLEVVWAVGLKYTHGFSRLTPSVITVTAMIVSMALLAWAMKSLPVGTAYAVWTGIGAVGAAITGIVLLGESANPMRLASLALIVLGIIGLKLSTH", "assay": "SSM electrophysiology of Gdx-Eco proteoliposomes", "type": "biochemical", "conditions": "2 mM substrate", "description": "as §1, §2, §3"}, "Gdx-pPro": {"molecular_target": "Gdx-pPro (Citrobacter freundii, UniProt O69279)", "sequence (O69279 2-105)": "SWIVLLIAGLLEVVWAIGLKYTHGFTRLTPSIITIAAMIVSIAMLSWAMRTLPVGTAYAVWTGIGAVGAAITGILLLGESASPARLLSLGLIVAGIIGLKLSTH", "conditions": "2 mM substrate"}},
  "data": [
    {"compound": "Gdx-pPro (Citrobacter freundii)", "values": [
      {"measurement": "Km", "setting": "N=C(N)N", "value": "2.9 ± 0.5", "unit": "mM"}
    ]},
    {"compound": "CN(C)C(=N)N=C(N)N", "note": "[Metformin, metformin]", "values": [
      {"measurement": "Transport currents in substrate screen", "setting": "Gdx-Clo", "value": "currents barely above the detectable limit"},
      {"measurement": "Transport currents in substrate screen", "setting": "Gdx-pAmi", "value": "currents barely above the detectable limit"},
      {"measurement": "Transport currents in substrate screen", "setting": "Gdx-Eco", "value": "currents barely above the detectable limit"},
      {"measurement": "Transport currents in substrate screen", "setting": "Gdx-pPro", "value": "currents barely above the detectable limit"}
    ]},
    {"compound": "CCCCNC(=N)NC(=N)N", "note": "[buformin]", "values": [
      {"measurement": "Transport currents in substrate screen", "setting": "Gdx-pAmi", "value": "transported"},
      {"measurement": "Transport currents in substrate screen", "setting": "Gdx-Eco", "value": "transported"},
      {"measurement": "Transport currents in substrate screen", "setting": "Gdx-pPro", "value": "transported"}
    ]},
    {"compound": "CNC(=N)NC(=N)N", "note": "[methylbiguanide]", "values": [
      {"measurement": "Transport currents in substrate screen", "setting": "Gdx-pAmi", "value": "transported"},
      {"measurement": "Transport currents in substrate screen", "setting": "Gdx-Eco", "value": "transported"},
      {"measurement": "Transport currents in substrate screen", "setting": "Gdx-pPro", "value": "transported"}
    ]}
  ]
}
